{"source": "patent US10617772B2", "about": "“Hsp9O-targeted inflammation and infection imaging and therapy” (Memorial Sloan Kettering Cancer Center, priority 2014, dated 2020)", "key": {"[1]": {"tested_on": "inflammatory pulmonary consolidation", "assay": "I-124 PUH71 PET-CT, tracer mixed with a therapeutic dose of non-radioactive PUH71 (FIGS. 3-4)", "format": "in vivo, human", "experimental": "(§1) Positron emission tomography (PET) combined with X-ray computed tomography (CT) was performed using a state of the art integrated PET-CT scanner (Discovery DSTE™ General Electric). CT scans for attenuation correction and anatomic coregistration were performed prior to tracer-injection, using the following acquisition parameters: 140 kVp; 85 mA; pitch of 1.75:1; reconstructed slice thickness of 3.75 mm; 0.8 s per rotation. The CT protocol was designed for anatomic localization of tracer-signal and for attenuation correction, while minimizing radiation exposure. Each patient received ˜185 megabecquerel (MBq) [^124I]-PU-H71 by peripheral vein over two minutes. PET emission scans were acquired in two-dimensional mode starting at the mid-thighs moving toward the head, for 7.5 minutes per PET bed position. PET data were reconstructed using a standard ordered subset expected maximization iterative algorithm. Emission data were corrected for scatter, attenuation and decay. Clinical FDG PET-CT studies were performed according to standard methods using state of the art PET-CT scanners. [^124I]-PU-H71 scans were performed at 3-4 hrs, 20-24 hrs, 48-72 hours and, optionally, ˜168 hrs after tracer administration on the microdose [^124I]-PU-H71 PET-CT study.\nPU-PET images were taken 1.5, 4, 24 and 48-72 hrs after co-administration on the tracer mixed with a therapeutic dose of non-radioactive PUH71 in a total volume of […], co-infused intravenously over one hour. Patient were treated with PU-H71 at escalating dose levels determined by a modified continuous reassessment model. Each patient is treated with his or her assigned dose on day 1, 4, 8 and 11 of each 21 day cycle. Pre- and post-treatment biopsies were collected for correlative studies including LCMSMS quantification of PU-H71, with the latter obtained within 24 hours of their cycle 1, day 1 dose of PU-H71."}, "[2]": {"tested_on": "inflammatory pulmonary infiltrate", "assay": "I-124 PUH71 PET-CT, microdose study in patients (FIGS. 1-2)", "format": "in vivo, human", "conditions": "person with ovarian cancer; PET-CT 24 hours after intravenous injection of 9.3 mCi", "experimental": "as §1"}, "[3]": {"conditions": "person with breast cancer, 6.5 mCi mixed with 35 mg non-radioactive PUH71, PET"}}, "data": [{"smiles": "CC(C)NCCCn1c(Sc2cc3c(cc2[124I])OCO3)nc2c(N)ncnc21", "note": "[I-124 PUH71]", "values": [{"measurement": "clearance of tracer from blood stream (void of activity within the cardiac atrium)", "setting": "[1]; [3]", "value": "cleared from blood stream"}, {"measurement": "tracer retention in left ventricle myocardium", "setting": "[1]; [3]", "value": "distinct tracer retention"}, {"measurement": "accumulation and retention of tracer in inflammatory pulmonary consolidation (right lung)", "setting": "[1]; person with breast cancer, 6.5 mCi mixed with 35 mg non-radioactive PUH71, immediately, 4 hours and 24 hours post-injection", "value": "distinct accumulation and sustained retention"}, {"measurement": "accumulation of tracer in inflammatory pulmonary infiltrate (apex of left lung)", "setting": "[2]", "value": "distinct accumulation"}]}, {"smiles": "CC(C)NCCCn1c(Sc2cc3c(cc2I)OCO3)nc2c(N)ncnc21", "note": "[PUH71]", "values": [{"measurement": "uptake relative to surrounding healthy tissues", "setting": "[1]; diseased tissue, patients, PET", "value": "high uptake"}, {"measurement": "blood clearance", "setting": "[1]; patients, PET", "value": "rapid blood clearance"}, {"measurement": "retention in the diseased tissue", "setting": "[1]; patients, PET", "value": "sustained retention"}, {"measurement": "outcome of pulmonary consolidation on CT scan", "setting": "[1]; two weeks after imaging, PUH71 35 mg twice a week for two weeks per three week cycle, together with antibiotic treatment and pleural fluid drainage", "value": "pulmonary consolidation had resolved"}]}]}
